Assay results reported in patent US20210189342A1, “COMPOSITIONS AND METHODS FOR MODULATING MONOCYTE AND MACROPHAGE INFLAMMATORY PHENOTYPES AND IMMUNOTHERAPY USES THEREOF” (Verseau Therapeutics, Inc., priority 2018, published 2021).

Test system: LILRB2
Assay: siRNA dose response, LILRB2 mRNA knockdown, Dual-Glo Luciferase Assay
Type: cell-based, human
Details: Hepa1-6 + reporter plasmid, 24 hr
Experimental: (§1) Dose response curves for siRNAs were generated in vitro using a variety of cell lines according to Table 4.
(§2) Briefly, cells were seeded in 96-well plates and reverse transfected with siRNA, Lipofectamine® 2000 (0.5 uL/well; ThermoFisher), and, in some cases, a reporter plasmid (50 ng/well). The reporter plasmid (psiCHECK™-2, Promega) encoded both firefly luciferase and the gene of interest fused to renilla luciferase; silencing of the gene of interest results in proportional silencing of renilla luciferase but leaves firefly luciferase unaffected as an internal control.
(§3) After 24 hr incubation at 37° C., mRNA knockdown was measured using an endpoint assay. For targets without a reporter plasmid, a branched DNA (bDNA) assay was performed according to the manufacturer's instructions (QuantiGene® Singleplex Gene Expression Assay, ThermoFisher) to measure both the target gene and GAPDH (housekeeping gene) mRNA. Data are plotted as siRNA concentration (nM) vs. remaining mRNA (ratio of target gene to GAPDH, normalized to mock siRNA-transfected cells). For targets with a reporter plasmid, a Dual-Glo® Luciferase Assay was performed according to the manufacturer's instructions (Promega) to measure firefly and renilla luciferase expression. Data are plotted as siRNA concentration (nM) vs. remaining mRNA (ratio of renilla to firefly luminescence, normalized to mock siRNA-transfected cells).
(§4) For all dose response curves, a 4-parameter logistic model was applied to determine the IC50 of each siRNA sequence (Table 5 and FIG. 2). Data shown in Table 5 and FIG. 2 represent the mean of quadruplicates, +/−standard deviation.

In order of falling IC50:
1. XD-10592: siRNA targeting LILRB2 (sense 5'-gcGAuAUGGcuGucAGuasa-3'; antisense 5'-dTUACUGAcAGCcAUAUCGCusu-3'; RNA with 2'-O-methyl and phosphorothioate modifications, case key not given here, as printed in the source, key not given here)  0.459 nM
2. XD-10593: siRNA targeting LILRB2 (sense 5'-cuAuGGUuAuGAcuuGAasa-3'; antisense 5'-dTUUcAAGUcAuAACcAuAGusu-3'; RNA with 2'-O-methyl and phosphorothioate modifications, case key not given here, as printed in the source, key not given here)  0.136 nM
3. XD-10599: siRNA targeting LILRB2 (sense 5'-cacuccGucuAAGaucAasa-3'; antisense 5'-dTUUGAUCUuAGACGGAGUGusu-3'; RNA with 2'-O-methyl and phosphorothioate modifications, case key not given here, as printed in the source, key not given here)  0.127 nM
4. XD-10598: siRNA targeting LILRB2 (sense 5'-ccAcucCGucuAAgAucasa-3'; antisense 5'-dTUGAUCUuAGACGGAGUGGusu-3'; as printed in the source, key not given here)  0.109 nM
5. XD-10594: siRNA targeting LILRB2 (sense 5'-gguuAuGAcuuGAccucusa-3'; antisense 5'-dTAGAGUUcAAGUcAuAACCusu-3'; RNA with 2'-O-methyl and phosphorothioate modifications, case key not given here, as printed in the source, key not given here)  0.089 nM
6. XD-10591: siRNA targeting LILRB2 (sense 5'-ggAuAcGAccAGAgcuugsa-3'; antisense 5'-dTCAAGCUCUGGUCGuAUccusu-3'; RNA with 2'-O-methyl and phosphorothioate modifications, case key not given here, as printed in the source, key not given here)  0.073 nM
7. XD-10590: siRNA targeting LILRB2 (sense 5'-caGcAuCuuGGAuuAcAcsa-3'; antisense 5'-dTGUGuAAUCcAAGAUGCUGusu-3'; RNA with 2'-O-methyl and phosphorothioate modifications, case key not given here, as printed in the source, key not given here)  0.068 nM
8. XD-10597: siRNA targeting LILRB2 (sense 5'-cccAcuCcGucuAaGAucsa-3'; antisense 5'-dTGAUCUuAGACGGAGUGGGusu-3'; RNA with 2'-O-methyl and phosphorothioate modifications, case key not given here, as printed in the source, key not given here)  0.059 nM

Test system: IGSF6
Assay: siRNA dose response, IGSF6 mRNA knockdown, Dual-Glo Luciferase Assay
Type: cell-based, human
Details: Hepa1-6 + reporter plasmid, 24 hr
Experimental: as §1, §2, §3, §4

In order of rising IC50:
1. XD-09646: siRNA targeting IGSF6 (sense 5'-ccAuAAGAGAcAuguGGAAdTsdT-3'; antisense 5'-UUCcAcAUGUCUCUuAUGGdTsdT-3'; RNA with 2'-O-methyl and phosphorothioate modifications, case key not given here, as printed in the source, key not given here)  0.01 nM
2. XD-09645: siRNA targeting IGSF6 (sense 5'-agAAcuAuAccAuaAGAGAdTsdT-3'; antisense 5'-UCUCUuAUGGuAuAGUUCUdTsdT-3'; as printed in the source, key not given here)  0.034 nM
3. XD-09642: siRNA targeting IGSF6 (sense 5'-gaAGcGAGAGcuAaAcAGAdTsdT-3'; antisense 5'-UCUGUUuAGCUCUCGCUUCdTsdT-3'; RNA with 2'-O-methyl and phosphorothioate modifications, case key not given here, as printed in the source, key not given here)  0.035 nM
4. XD-09643: siRNA targeting IGSF6 (sense 5'-guGcucGGcGuAuuuuucAdTsdT-3'; antisense 5'-UGAAAAAuACGCCGAGcACdTsdT-3'; as printed in the source, key not given here)  0.077 nM
5. XD-09648: siRNA targeting IGSF6 (sense 5'-ccAuAGAAAcGuuuuAAuudTsdT-3'; antisense 5'-AAUuAAAACGUUUCuAUGGdTsdT-3'; as printed in the source, key not given here)  0.503 nM

Test system: CLEC7A
Assay: siRNA dose response, CLEC7A mRNA knockdown, Dual-Glo Luciferase Assay
Type: cell-based, human
Details: Hepa1-6 + reporter plasmid, 24 hr
Experimental: as §1, §2, §3, §4

Going from “XD-10568: siRNA targeting CLEC7A (sense 5'-ccuAGAAucuuGuauAAuAdTsdT-3'; antisense 5'-uAUuAuAcAAGAUUCuAGGdTsdT-3'; as printed in the source, key not given here)” to “XD-10565: siRNA targeting CLEC7A (sense 5'-ccAuAAGcGAAucuuAAuudTsdT-3'; antisense 5'-AAUuAAGAUUCGCUuAUGGdTsdT-3'; RNA with 2'-O-methyl and phosphorothioate modifications, case key not given here, as printed in the source, key not given here)”, the IC50 falls from 0.016 nM to less than 0.004 nM. The second is the more potent here.

First: XD-10561: siRNA targeting CLEC7A (sense 5'-ggucAAGAuAAAugcAGAAdTsdT-3'; antisense 5'-UUCUGcAUUaAUCUUAACCdTsdT-3'; RNA with 2'-O-methyl and phosphorothioate modifications, case key not given here, as printed in the source, key not given here)
Second: XD-10564: siRNA targeting CLEC7A (sense 5'-ggGuAAGccAuAAgcGaaudTsdT-3'; antisense 5'-AUUCGCUuAUGGCUuACCCdTsdT-3'; RNA with 2'-O-methyl and phosphorothioate modifications, case key not given here, as printed in the source, key not given here)
The IC50 of the first is higher: 0.009 nM for the first, less than 0.004 nM for the second. The second is the more potent here.

“XD-10567: siRNA targeting CLEC7A (sense 5'-gccuAGAAucuuGuAuAAudTsdT-3'; antisense 5'-AUuAuAcAAGAUUCuAGGCdTsdT-3'; as printed in the source, key not given here)” and “XD-10562: siRNA targeting CLEC7A (sense 5'-agGuAGGcuAGuAuuAuuudTsdT-3'; antisense 5'-AAAuAAuACuAGCCuACCUdTsdT-3'; as printed in the source, key not given here)” are within 1.5-fold of each other in IC50: 0.023 nM for the first, 0.033 nM for the second.

Compared with “XD-10569: siRNA targeting CLEC7A (sense 5'-gcucucAuAGGAAaGuuuudTsdT-3'; antisense 5'-AAAACUUUCCuAUGAGAGCdTsdT-3'; as printed in the source, key not given here)”, “XD-10566: siRNA targeting CLEC7A (sense 5'-ugccAuAucucuAauAGAAdTsdT-3'; antisense 5'-UUCuAUuAGAGAuAUGGcAdTsdT-3'; RNA with 2'-O-methyl and phosphorothioate modifications, case key not given here, as printed in the source, key not given here)” is 2.7-fold lower in IC50: 0.016 nM for the first, 0.006 nM for the second.
